Counter-ions that a name gives are not always drawn.

This note sets out measurements from US7928099B2, “Pyrimido [4,5-D] azepine derivatives as 5-HT2c agonists” (Pfizer Inc, priority 2007, dated 2011).

Test [1] concerns the target T1, human recombinant 5-HT2c receptor (Homo sapiens, UniProt P28335).
T1 construct: expressed in transfected cells; host or cells: CHO K1 (Chinese hamster ovary), stably transfected
T1 sequence (P28335 33-458): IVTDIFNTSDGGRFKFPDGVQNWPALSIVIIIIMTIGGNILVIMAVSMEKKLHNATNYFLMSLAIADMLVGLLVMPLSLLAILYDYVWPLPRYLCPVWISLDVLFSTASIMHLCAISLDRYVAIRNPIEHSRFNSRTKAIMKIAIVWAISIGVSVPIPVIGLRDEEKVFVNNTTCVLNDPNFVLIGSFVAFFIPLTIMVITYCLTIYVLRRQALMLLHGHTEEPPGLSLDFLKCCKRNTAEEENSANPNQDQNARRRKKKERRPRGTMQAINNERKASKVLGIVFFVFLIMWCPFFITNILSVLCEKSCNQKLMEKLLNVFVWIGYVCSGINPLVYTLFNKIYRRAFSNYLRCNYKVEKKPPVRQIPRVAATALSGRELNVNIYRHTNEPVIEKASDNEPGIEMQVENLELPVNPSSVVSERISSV
As to the kind of experiment: FLIPR fluorescent Ca2+ mobilisation agonist assay in CHO K1 cells (Method 1). The test is classed as cell-based. The settings on record: for EC50: agonist affinity, FLIPR. As to the method:
(§1) The compounds of the invention were evaluated for biological activity by measuring the agonist affinity (EC50) and efficacy (Emax) at the human recombinant 5-HT2c receptor expressed in CHO K1 cells, using a fluorescent based Ca^2+ mobilisation assay format compatible with FLIPR technology (Method 1). Additionally, the binding activity of a compound was determined by measuring its affinity for the human recombinant 5-HT2c receptor membranes from Swiss 3T3 cells (Method 2).
The agonist affinity of the compounds were tested by measuring their ability to induce a fluorescent based Ca^2+ mobilization signal in a FLIPR assay using CHO K1 cells expressing recombinant human 5-HT2C receptor. Both agonist affinity (EC50) and efficacy (Emax) were determined.
Chinese hamster ovary cells (CHO K1) stably transfected with the 5-HT2c receptor were cultured under standard cell culture techniques. Specifically, cells were grown at 37° C. and 5% CO2 in Dulbecco's Modified Eagle's Medium (DMEM) culture media supplemented with 10% dialysed foetal calf serum (FCS), 1% non-essential amino acids, 1 mM sodium pyruvate, 800 μg/mL geneticin and 50 μg/ml zeocin. Cells were harvested for passaging and storage using trypsin-EDTA, centrifugation and resuspension in culture medium. Cells were grown to 60-80% confluency, harvested and adjusted to 15-20×10^6 cells/ml/vial in medium/10% DMSO and stored long-term at −80° C.
Cells were seeded into black-walled clear-bottomed 384 well plates 24 h before use. Frozen cells were defrosted in a 37° C. water bath and immediately transferred into 1 mL/vial 37° C. culture medium, diluted to 10 ml and DMSO removed by centrifugation. The cells were resuspended in 15 ml/vial of cell culture medium, counted and adjusted to give 500,000 cells/mL (10,000 cells/well). […] of cell suspension was added to the 384 well plates which were then incubated overnight at 37° C.
The maximum agonist response was determined with 5-HT at a final assay concentration of 10 μM in the diluent above. The minimum response was determined with Dulbeccos PBS (+CaCl2, +MgCl2) with 0.9% DMSO and 0.05% pluronic F-127. Test compounds, maximum and minimum controls were added to a 384 well polypropylene plate.
The FLIPR calcium assay reagent was diluted with assay buffer (Hank's Balanced Salt Solution (HBSS))/20 mM HEPES and 2.5 mM probenecid (diluted with 1M Sodium hydroxide and DPBS (+CaCl2, +MgCl2)).
20 μl/well FLIPR calcium assay reagent was added to the cell plates, which were incubated for 1 h at 37° C. Cell plates and compound plates were then transferred onto the FLIPR. The assay was run using the appropriate FLIPR program, which initiates the reaction by transferring 15 μL compound into the corresponding, well of the cell plate.
The statistical parameter exported from each well was the max peak height of the response.

Test [2] deals with T1, human recombinant 5-HT2c receptor. The test can be described thus: 3H-meselurgine radioligand binding SPA, membranes from Swiss 3T3 cells (Method 2). The conditions noted are these: 3H-meselurgine displacement, Cheng-Prusoff; Swiss 3T3 membranes; read-out: Binding Affinity Ki. The protocol: as §1
The compounds were tested for biological activity by their ability to inhibit binding of the radioligand ^3H-meselurgine at the human recombinant 5-HT2C receptor expressed in the Swiss 3T3 cells using a scintillation proximity assay (SPA) technology.
Swiss 3T3 stably transfected with the 5-HT2C receptor were cultured under standard cell culture techniques. Specifically, cells were grown in 50 mL growth medium (Dulbecco's Modified Eagle's Medium (DMEM) culture media supplemented with 10% dialysed foetal calf serum (FCS), 2 mM penicillin/streptomycin and 20 μg/mL geneticin) in 225 cm^2 flasks at 37° C. and 5% CO2. Cells were grown to 60-80% confluency, harvested using trypsin-EDTA and pelleted by centrifugation for long-term storage at −80° C.
Cell pellets were thawed on ice and resuspended in 3 mL of membrane preparation buffer (see Media and Buffers for composition) per 1 mL of packed cell. The suspension was homogenised on ice for several 5 s intervals using a hand-held homogeniser. The homogenate was then centrifuged at 1,000 rpm for 5 min at 4° C.
The supernatants were then collected and retained. Initial cell & nuclei pellets (P1) were subsequently rehomogenised and centrifuged using the conditions cited above, and the supernatants collected and pooled with those retained from the first spin.
The pooled supernatants were centrifuged at 19,500 rpm for 45 min at 4° C., and the supernatants discarded. The pellets (P2) were then resuspended in 3 mL of membrane preparation buffer per 1 mL of the original packed cell volume. Protein concentrations were subsequently measured and the membrane suspension was finally frozen in aliquots of set volume and stored at −80° C. prior to use in assays.
For each batch of membrane used, optimal concentrations of Polylysine YSi SPA beads and membrane were determined. The assay free radioligand concentration was expressed as a percentage of the total free radioligand concentration to give an estimate of the radioligand depletion.
The affinity of ^3H-meselurgine for the human recombinant 5-HT2c receptor was determined for each membrane batch at the selected protein and bead concentrations. […] The mean KD for ^3H-meselurgine at a batch of membranes was determined from data from a minimum of three separate assays.
The required amount of membrane, was thawed on ice and added to a pre-determined volume of bead suspension in 50 mM HEPES buffer, pH 7.4. The beads were then pre-coupled by incubating the predetermined protein quantity per mg of bead on a roller 4° C. for 1 h. Subsequently, the bead/membrane complex was spun down at 1000 rpm for 5 min. The resulting pellet was resuspended in assay buffer at the specific concentration required for the final assay.
An aliquot of [^3H]-meselurgine stock was diluted in binding assay buffer to give a pre-determined final assay concentration less than the equilibrium dissociation constant (KD) value.
All test compounds were prepared at a concentration of 4 mM in 100% dimethyl sulphoxide (DMSO) from dry samples.
The same volume of assay buffer was added to specific wells of the plate to enable subsequent measurement of total radioligand binding. Furthermore, 5 μL of Mianserin at 25 μM (2.5 μM final assay concentration was subsequently added to pre-determined wells to determine non-specific binding (NSB).

The mark [3] stands for this setting: CHO-K1, efficacy, percentage of mean maximal response to 10 μM 5-HT.
The mark [4] stands for this setting: efficacy, percentage of mean maximal response to 10 μM 5-HT.

With `OCC1CCN(c2nc(Cc3ccccc3)nc3c2CCNCC3)C1` (centres unmarked) [Example 42, [1-(2-benzyl-6,7,8,9-tetrahydro-5H-pyrimido[4,5-d]azepin-4-yl)pyrrolidin-3-yl]methanol hydrochloride], the Emax (in general, the greatest response seen or fitted, relative to the assay's reference) in test [1] (setting [3]) is 75.4%. The EC50 (in general, the concentration needed to bring the measured effect to its halfway point) in test [1] amounted to 0.067 µM. In test [2], the Ki (commonly the dissociation constant of the complex between target and ligand, obtained from inhibition or displacement) was 0.102 µM.
As to `COc1nc(N(C)Cc2ccccc2)nc2c1CCNCC2` [Example 16, N-benzyl-4-methoxy-N-methyl-6,7,8,9-tetrahydro-5H-pyrimido[4,5,d]azepin-2-amine], the Emax in test [1] (setting [3]) is 41.4%. For the same compound, the EC50 in test [1] was determined as 0.526 µM. Besides, the Ki in test [2] came to 0.0547 µM.
For the compound `CC1CCCN(c2nc(Cc3ccccc3)nc3c2CCNCC3)C1` (centres unmarked) [Example 30, 2-benzyl-4-(3-methylpiperidin-1-yl)-6,7,8,9-tetrahydro-5H-pyrimido[4,5-d]azepine hydrochloride], the Emax in test [1] (setting [3]) worked out at 54.8%. The EC50 in test [1] is 0.984 µM. The inhibition constant Ki in test [2] stood at 0.0991 µM.
For the compound “2-[Difluoro(phenyl)methyl]-N-methyl-6,7,8,9-tetrahydro-5H-pyrimido[4,5-d]azepin-4-amine [Example 8]”, the EC50 in test [1] turned out to be 0.128 µM. The Emax % in test [1] (setting [4]) turned out to be 54.30%. The Ki in test [2] is 0.0445 µM.
Consider `CCCNc1nc2c(c(N3CCSCC3)n1)CCNCC2` [Example 111, N-propyl-4-thiomorpholin-4-yl-6,7,8,9-tetrahydro-5H-pyrimido[4,5-d]-azepin-2-amine], for which, in test [1] (setting [3]), the Emax amounted to 64.3%. In test [1], the EC50 is 0.141 µM.
Turning to `c1ccc(CCNc2nc(N3CCSCC3)nc3c2CCNCC3)cc1` [Example 91, N-(2-phenylethyl)-2-thiomorpholin-4-yl-6,7,8,9-tetrahydro-5H-pyrimido-[4,5-d]azepin-4-amine], the Emax in test [1] (setting [3]) was found to be 69.6%. Further, the EC50 in test [1] is 0.186 µM.
Turning to `CCCNc1nc(N(C)CC2CC2)nc2c1CCNCC2` [Example 103, N-2-(cyclopropylmethyl)-N-2-methyl-N-4-propyl-6,7,8,9-tetrahydro-5H-pyrimido[4,5-d]azepine-2,4-diamine], in test [1] (setting [3]), the Emax stood at 32.7%. Further, the EC50 in test [1] stood at 0.449 µM.
Consider `c1ccc(CCNc2nc3c(c(N4CCSCC4)n2)CCNCC3)cc1` [Example 110, N-(2-phenylethyl)-4-thiomorpholin-4-yl-6,7,8,9-tetrahydro-5H-pyrimido[4,5-d]azepin-2-amine], for which the Emax in test [1] (setting [3]) came to 38.8%. Besides, the EC50 in test [1] came out at 0.604 µM.
For the compound `CC(C)(C)OCCOc1nc(Cc2ccccc2)nc2c1CCNCC2` [Example 81, 2-benzyl-4-(2-tert-butoxyethoxy)-6,7,8,9-tetrahydro-5H-pyrimido[4,5-d]azepine], in test [1] (setting [3]), the Emax came to 60.3%. The EC50 in test [1] worked out at 0.195 µM.
`c1ccc(Cc2nc3c(c(OCCc4ccncc4)n2)CCNCC3)cc1` [Example 79, 2-benzyl-4-(2-pyridin-4-ylethoxy)-6,7,8,9-tetrahydro-5H-pyrimido[4,5-d]azepine]: the Emax in test [1] (setting [3]) came to 67.3%. Moreover, in test [1], the EC50 stood at 0.154 µM.
`CNc1nc(C(C)c2ccccc2)nc2c1CCNCC2` (centres unmarked) [Example 3, N-methyl-2-(1-phenylethyl)-6,7,8,9-tetrahydro-5H-pyrimido[4,5-d]azepin-4-amine]: the maximal response (Emax) in test [1] (setting [4]) was 60.8%.
As to `Cc1ccc(Cc2ncc3c(n2)CCNCC3)cc1` [Example 64, 2-(4-Methylbenzyl)-6,7,8,9-tetrahydro-5H-pyrimido[4,5-d]azepine], in test [1] (setting [3]), the maximum response (Emax) was 63.1%. In addition, the EC50 in test [1] stood at 0.1 µM.
Consider `Cc1ncccc1COc1nc(Cc2ccccc2)nc2c1CCNCC2` [Example 77, 2-benzyl-4-[(2-methyl-pyridin-3-yl)methoxy]-6,7,8,9-tetrahydro-5H-pyrimido[4,5-d]azepine], for which the Emax in test [1] (setting [3]) was determined as 70.3%. Further, in test [1], the EC50 stood at 0.13 µM.
Take `CC(C)COc1nc(Cc2ccccc2)nc2c1CCNCC2` [Example 76, 2-benzyl-4-isobutoxy-6,7,8,9-tetrahydro-5H-pyrimido[4,5-d]azepine]: the Emax in test [1] (setting [3]) came out at 34%. Besides, the EC50 in test [1] came to 0.127 µM.
Consider `CN(C)c1nc(N2CCOCC2)nc2c1CCNCC2` [Example 97, N,N-dimethyl-2-morpholin-4-yl-6,7,8,9-tetrahydro-5H-pyrimido-[4,5-d]azepin-4-amine], for which the Emax in test [1] (setting [3]) came to 84.6%. Moreover, the EC50 in test [1] was determined as 0.0676 µM.
`CCN(C)c1nc2c(c(N(C)C)n1)CCNCC2` [Example 100, N-2-ethyl-N-2,N-4,N-4-trimethyl-6,7,8,9-tetra-hydro-5H-pyrimido-[4,5-d]azepine-2,4-diamine]: in test [1] (setting [3]), the Emax stood at 51.2%. For the same compound, in test [1], the half-maximal effective concentration (EC50) is 0.122 µM.
As to `c1ccc(Cc2nc3c(c(OCCc4ccccn4)n2)CCNCC3)cc1` [Example 73, 2-benzyl-4-(2-pyridin-2-ylethoxy)-6,7,8,9-tetrahydro-5H-pyrimido[4,5-d]azepine], in test [1] (setting [3]), the maximal response (Emax) was 83.3%. Moreover, the EC50 in test [1] is 0.00861 µM.
For `CCN(C)c1nc(N2CCOCC2)nc2c1CCNCC2` [Example 95, N-ethyl-N-methyl-2-morpholin-4-yl-6,7,8,9-tetrahydro-5H-pyrimido-[4,5-d]azepin-4-amine], the Emax in test [1] (setting [3]) turned out to be 88.4%. The EC50 in test [1] came to 0.229 µM.
On to `Clc1ccc(Cc2ncc3c(n2)CCNCC3)cc1` [Example 57, 2-(4-Chlorobenzyl)-6,7,8,9-tetrahydro-5H-pyrimido[4,5-d]azepine], for which, in test [1] (setting [3]), the Emax came to 64.7%. For the same compound, the EC50 in test [1] was 0.192 µM.
